From patent publication US11713335B2, “Aminocoumarin compounds and methods of their use” (President and Fellows of Harvard College, priority 2018, dated 2023)
Converted amounts (≈) assume the structure as drawn. Where two headings read alike, the source gives them in different places.

Columns and labels:
Format in all cases: cell-based
A. baumannii 19606 = test: Minimal inhibitory concentration, A. baumannii 19606; settings: 16 hour minimal inhibitory concentration at 37° C., read-out: MIC (μM) A. baumannii 19606
Description: (§1) General Procedure for Determination of Minimal Inhibitory Concentrations
(§2) Overnight cultures (5 mL) of bacterial strains were grown in LB media or TSA media (for S. aureus) at 37° C. and with shaking at 220 rpm until saturation. The overnight culture was diluted serially 1:100 (50 μL in 5 mL sterile media) and then 1:100 (250 μL in 25 mL sterile media). The 25 mL of diluted culture was then dispensed to a sterile 96 well plate (Corning #3370). 198 μL of culture were dispensed into row A and 100 μL of this culture were dispensed into rows B-H. Aminocoumarin compound (DMSO stock) were added to the first row and then the row was mixed by pipetting. 100 μL of culture from row A were transferred to row B and the serial dilution continued until the final 100 μL from row H were discarded. The plate was incubated without shaking in a 37° C. for 16 hours and then read by visible light spectrophotometer (Molecular Devices) at 600 nm. The minimal inhibitory concentration (MIC) was determined as the lowest concentration of compound concentration that inhibited the growth of bacteria.
(§3) The compounds of the invention were assessed for activities against the pathogens S. aureus RN4220 and MW2, E. cloacae 13047, A. baumannii 19606, K. pneumoniae 700721, E. coli MC4100, 25922. All activities are reported in micromolar (uM) and are 16 hour minimal inhibitory concentrations at 37° C. The assay is detailed in Example 11 and is titled “General Procedure for Determination of Minimal Inhibitory Concentrations.”

S. aureus RN4220 = test: Minimal inhibitory concentration, S. aureus RN4220; settings: Staphylococcus aureus, RN4220, 16 h, 16 hour minimal inhibitory concentration at 37° C.; read-out: MIC (μM) S. aureus RN4220
Description: as §1, §2, §3

K. pneumoniae 700721 = test: Minimal inhibitory concentration, K. pneumoniae 700721; settings: Klebsiella pneumoniae, 700721; 16 hour minimal inhibitory concentration at 37° C.; read-out: MIC (μM) K. pneumoniae 700721
Description: as §1, §2, §3

E. coli 25922 = test: Minimal inhibitory concentration, E. coli 25922; settings: 16 hour minimal inhibitory concentration at 37° C., read-out: MIC (μM) E. coli 25922
Description: as §1, §2, §3

S. aureus MW2 = test: Minimal inhibitory concentration, S. aureus MW2; settings: Staphylococcus aureus, MRSA, 16 h, read-out: MIC (μM) S. aureus MW2 (MRSA)
Description: as §1, §2, §3

E. coli MC4100 = test: Minimal inhibitory concentration, E. coli MC4100; settings: Escherichia coli, 16 hour minimal inhibitory concentration at 37° C., read-out: MIC (μM) E. coli MC4100 ara+
Description: as §1, §2, §3

E. cloacae 13047 = test: Minimal inhibitory concentration, E. cloacae 13047; settings: Enterobacter cloacae, 13047; 16 hour minimal inhibitory concentration at 37° C.; read-out: MIC (μM) E. cloacae 13047
Description: as §1, §2, §3

[1] = Acinetobacter baumannii, 19606, 16 h
[2] = 16 hour minimal inhibitory concentration at 37° C.

CO[C@@H]1[C@@H](OC(N)=O)[C@@H](O)[C@H](Oc2ccc3c(O)c(NC(=O)c4ccc(C(=O)c5ccccc5)cc4)c(=O)oc3c2C)OC1(C)C [Compound 233]
MIC (A. baumannii 19606; [1]): > 50 µM
MIC (S. aureus RN4220): 40 µM (≈ 25.3 µg/mL)
MIC (K. pneumoniae 700721): > 100 µM
MIC (E. coli 25922; Escherichia coli, 25922, 16 h): > 200 µM
MIC (S. aureus MW2; [2]): 40 µM (≈ 25.3 µg/mL)
MIC (E. coli MC4100; MC4100, 16 h): > 200 µM
MIC (E. cloacae 13047): > 100 µM

CO[C@@H]1[C@@H](OC(N)=O)[C@@H](O)[C@H](Oc2ccc3c(O)c(NC(=O)c4cccc(Oc5ccccc5Cl)c4)c(=O)oc3c2C)OC1(C)C [Compound 246]
MIC (A. baumannii 19606; [1]): > 50 µM
MIC (S. aureus RN4220): 10 µM (≈ 6.55 µg/mL)
MIC (K. pneumoniae 700721): > 100 µM
MIC (E. coli 25922; Escherichia coli, 25922, 16 h): 76 µM (≈ 49.8 µg/mL)
MIC (S. aureus MW2; [2]): 5 µM (≈ 3.28 µg/mL)
MIC (E. coli MC4100; MC4100, 16 h): 79 µM (≈ 51.7 µg/mL)
MIC (E. cloacae 13047): > 100 µM

CO[C@@H]1[C@@H](OC(N)=O)[C@@H](O)[C@H](Oc2ccc3c(O)c(NC(=O)c4ccc(I)c(Oc5ccccc5)c4)c(=O)oc3c2C)OC1(C)C [Compound 252]
MIC (A. baumannii 19606; [1]): > 50 µM
MIC (S. aureus RN4220): 2.3 µM (≈ 1.72 µg/mL)
MIC (K. pneumoniae 700721): 38 µM (≈ 28.4 µg/mL)
MIC (E. coli 25922; Escherichia coli, 25922, 16 h): 33 µM (≈ 24.6 µg/mL)
MIC (S. aureus MW2; [2]): 2 µM (≈ 1.49 µg/mL)
MIC (E. coli MC4100; MC4100, 16 h): 17 µM (≈ 12.7 µg/mL)
MIC (E. cloacae 13047): > 100 µM

CO[C@@H]1[C@@H](OC(N)=O)[C@@H](O)[C@H](Oc2ccc3c(O)c(NC(=O)c4ccc(Br)c(Oc5ccccc5)c4)c(=O)oc3c2C)OC1(C)C [Compound 258]
MIC (A. baumannii 19606; [1]): > 50 µM
MIC (S. aureus RN4220): 5 µM (≈ 3.5 µg/mL)
MIC (K. pneumoniae 700721): 20 µM (≈ 14 µg/mL)
MIC (E. coli 25922; Escherichia coli, 25922, 16 h): 18 µM (≈ 12.6 µg/mL)
MIC (S. aureus MW2; [2]): 4.5 µM (≈ 3.15 µg/mL)
MIC (E. coli MC4100; MC4100, 16 h): 4.5 µM (≈ 3.15 µg/mL)
MIC (E. cloacae 13047): > 100 µM

CO[C@@H]1[C@@H](OC(N)=O)[C@@H](O)[C@H](Oc2ccc3c(O)c(NC(=O)c4cccc(-c5cccc(Br)c5)c4)c(=O)oc3c2C)OC1(C)C [Compound 234]
MIC (A. baumannii 19606; [1]): 18 µM (≈ 12.3 µg/mL)
MIC (S. aureus RN4220): 0.73 µM (≈ 0.499 µg/mL)
MIC (K. pneumoniae 700721): > 100 µM
MIC (E. coli 25922; Escherichia coli, 25922, 16 h): 18 µM (≈ 12.3 µg/mL)
MIC (S. aureus MW2; [2]): 0.46 µM (≈ 0.314 µg/mL)
MIC (E. coli MC4100; MC4100, 16 h): 18 µM (≈ 12.3 µg/mL)
MIC (E. cloacae 13047): > 100 µM

CO[C@@H]1[C@@H](OC(N)=O)[C@@H](O)[C@H](Oc2ccc3c(OCCO)c(NC(=O)c4ccc(O)c(CC=C(C)C)c4)c(=O)oc3c2C)OC1(C)C [Compound 215]
MIC (A. baumannii 19606; Acinetobacter baumannii, 19606): > 50 µM
MIC (S. aureus RN4220): 38 µM (≈ 25 µg/mL)
MIC (K. pneumoniae 700721): > 100 µM
MIC (E. coli 25922; Escherichia coli, 25922): > 200 µM
MIC (S. aureus MW2): 19 µM (≈ 12.5 µg/mL)
MIC (E. coli MC4100; MC4100): > 200 µM
MIC (E. cloacae 13047): > 100 µM

CO[C@@H]1[C@@H](OC(N)=O)[C@@H](O)[C@H](Oc2ccc3c(O)c(NC(=O)c4ccc([N+](=O)[O-])c(Oc5ccccc5)c4)c(=O)oc3c2C)OC1(C)C [Compound 253]
MIC (A. baumannii 19606; [1]): > 50 µM
MIC (S. aureus RN4220): 38 µM (≈ 25.3 µg/mL)
MIC (K. pneumoniae 700721): > 100 µM
MIC (E. coli 25922; Escherichia coli, 25922, 16 h): 75 µM (≈ 49.9 µg/mL)
MIC (S. aureus MW2; [2]): 38 µM (≈ 25.3 µg/mL)
MIC (E. coli MC4100; MC4100, 16 h): 75 µM (≈ 49.9 µg/mL)
MIC (E. cloacae 13047): > 100 µM

CO[C@@H]1[C@H]2OP(=O)(c3ccccc3)O[C@H]2[C@H](Oc2ccc3c(O)c(NC(=O)c4ccc(O)c(CC=C(C)C)c4)c(=O)oc3c2C)OC1(C)C (stereo partly shown) [Compound 208]
MIC (A. baumannii 19606; [1]): > 50 µM
MIC (S. aureus RN4220): > 100 µM
MIC (K. pneumoniae 700721): > 100 µM
MIC (E. coli 25922; Escherichia coli, 25922, 16 h): > 200 µM
MIC (S. aureus MW2; [2]): > 100 µM
MIC (E. coli MC4100; MC4100, 16 h): > 200 µM
MIC (E. cloacae 13047): > 100 µM

CO[C@@H]1[C@@H](OC(N)=O)[C@@H](O)[C@H](Oc2ccc3c(O)c(NS(=O)(=O)c4cccc(-c5ccccc5)c4)c(=O)oc3c2C)OC1(C)C [Compound 202]
MIC (A. baumannii 19606; [1]): > 50 µM
MIC (S. aureus RN4220): > 100 µM
MIC (K. pneumoniae 700721): > 100 µM
MIC (E. coli 25922; Escherichia coli, 25922, 16 h): > 200 µM
MIC (S. aureus MW2; [2]): > 100 µM
MIC (E. coli MC4100; MC4100, 16 h): > 200 µM
MIC (E. cloacae 13047): > 100 µM

C#Cc1ccc(C(=O)Nc2c(O)c3ccc(O[C@@H]4OC(C)(C)[C@H](OC)[C@@H](OC(N)=O)[C@H]4O)c(C)c3oc2=O)cc1Oc1ccccc1 [Compound 257]
MIC (A. baumannii 19606; [1]): > 50 µM
MIC (S. aureus RN4220): 5 µM (≈ 3.22 µg/mL)
MIC (K. pneumoniae 700721): 71 µM (≈ 45.8 µg/mL)
MIC (E. coli 25922; Escherichia coli, 25922, 16 h): 19 µM (≈ 12.2 µg/mL)
MIC (S. aureus MW2; [2]): 5 µM (≈ 3.22 µg/mL)
MIC (E. coli MC4100; MC4100, 16 h): 39 µM (≈ 25.1 µg/mL)
MIC (E. cloacae 13047): > 100 µM

CO[C@@H]1[C@@H](OC(N)=O)[C@@H](O)[C@H](Oc2ccc3c(O)c(NC(=O)c4ccc(N=[N+]=[N-])cc4)c(=O)oc3c2C)OC1(C)C [Compound 224]
MIC (A. baumannii 19606; [1]): > 50 µM
MIC (S. aureus RN4220): 88 µM (≈ 50.1 µg/mL)
MIC (K. pneumoniae 700721): > 100 µM
MIC (E. coli 25922; Escherichia coli, 25922, 16 h): > 200 µM
MIC (S. aureus MW2; [2]): > 100 µM
MIC (E. cloacae 13047): > 100 µM

CO[C@@H]1[C@@H](OC(N)=O)[C@@H](O)[C@H](Oc2ccc3c(O)c(NC(=O)c4ccc(I)cc4)c(=O)oc3c2C)OC1(C)C [Compound 225]
MIC (A. baumannii 19606; [1]): > 50 µM
MIC (S. aureus RN4220): 38 µM (≈ 24.9 µg/mL)
MIC (K. pneumoniae 700721): > 100 µM
MIC (E. coli 25922; Escherichia coli, 25922, 16 h): > 200 µM
MIC (S. aureus MW2; [2]): 38 µM (≈ 24.9 µg/mL)
MIC (E. cloacae 13047): > 100 µM
